According to paper PMC12491701, “Discovery of an APP-selective BACE1 inhibitor for Alzheimer's disease” (Neurotherapeutics, 2025):
Several values for one entry are separate records, joined by “and”; a condition that tells them apart may be missing. Equal entries are not always repeated.

What was measured:
BACE1 cleavage of PSGL1 = target: T1, BACE1 cleavage of PSGL1 (Homo sapiens, UniProt P56817); assay: PSGL1 assay (SEAP-PSGL1); assay type: cell-based; conditions: SEAP-PSGL1, HEK293
T1 construct: with or without full-length wild-type BACE1; expressed in transfected cells; host or cells: HEK293
T1 sequence (P56817 46-501): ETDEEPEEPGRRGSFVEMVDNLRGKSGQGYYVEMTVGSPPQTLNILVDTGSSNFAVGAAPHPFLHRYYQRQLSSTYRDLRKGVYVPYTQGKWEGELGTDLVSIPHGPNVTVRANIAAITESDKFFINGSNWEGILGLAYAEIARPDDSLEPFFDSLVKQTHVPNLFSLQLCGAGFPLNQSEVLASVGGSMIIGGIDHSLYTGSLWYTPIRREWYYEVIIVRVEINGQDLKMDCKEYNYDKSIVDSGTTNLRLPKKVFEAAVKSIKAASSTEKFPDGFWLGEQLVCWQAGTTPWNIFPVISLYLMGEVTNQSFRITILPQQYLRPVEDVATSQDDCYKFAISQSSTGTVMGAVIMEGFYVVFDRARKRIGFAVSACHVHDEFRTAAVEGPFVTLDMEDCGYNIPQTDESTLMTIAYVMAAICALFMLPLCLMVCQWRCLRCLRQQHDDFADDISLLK

[1] = tested on: CHO cells that express APP with the Swedish (Swe) K595N/M596L mutation; assay: Aβ1-42 production in CHO-7W Swe cells; assay type: cell-based, Chinese hamster; conditions: 1 μM, 24-h treatment, in words
Experimental: The Chinese hamster ovary (CHO) cell line overexpressing human AβPP (7W) stably transfected with human APP or overexpressing APP with the Swedish (Swe) K595 N/M596L mutation were incubated with FAH compounds diluted to 1 μM overnight. Culture Media was collected and frozen. Media was assayed using an AlphaLISA for Aβ1-42 (Perkin Elmer catalog # AL276C), sAPPα (R&D Systems catalog # AF1168 conjugated with Perkin Elmer acceptor beads catalog # 6772001 + 2B3 antibody from IBL catalog # 11088 biotinylated), and sAPPβ (Perkin Elmer AL276-acceptor + IBL catalog # 18957 biotinylated). For the assay, 2 μL of diluted or undiluted sample was added to a 384 well plate, followed by 2 μL of the respective antibody mixture. This was incubated for 1 h. Afterwards, 2 μL of donor beads was added to each well, followed by a 30-min incubation in the dark, after which the signal was read.

eAPP = eAPP (Homo sapiens, UniProt P05067); assay: APP binding by surface plasmon resonance (SPR); conditions: SPR, in words
eAPP, sequence (P05067 18-701): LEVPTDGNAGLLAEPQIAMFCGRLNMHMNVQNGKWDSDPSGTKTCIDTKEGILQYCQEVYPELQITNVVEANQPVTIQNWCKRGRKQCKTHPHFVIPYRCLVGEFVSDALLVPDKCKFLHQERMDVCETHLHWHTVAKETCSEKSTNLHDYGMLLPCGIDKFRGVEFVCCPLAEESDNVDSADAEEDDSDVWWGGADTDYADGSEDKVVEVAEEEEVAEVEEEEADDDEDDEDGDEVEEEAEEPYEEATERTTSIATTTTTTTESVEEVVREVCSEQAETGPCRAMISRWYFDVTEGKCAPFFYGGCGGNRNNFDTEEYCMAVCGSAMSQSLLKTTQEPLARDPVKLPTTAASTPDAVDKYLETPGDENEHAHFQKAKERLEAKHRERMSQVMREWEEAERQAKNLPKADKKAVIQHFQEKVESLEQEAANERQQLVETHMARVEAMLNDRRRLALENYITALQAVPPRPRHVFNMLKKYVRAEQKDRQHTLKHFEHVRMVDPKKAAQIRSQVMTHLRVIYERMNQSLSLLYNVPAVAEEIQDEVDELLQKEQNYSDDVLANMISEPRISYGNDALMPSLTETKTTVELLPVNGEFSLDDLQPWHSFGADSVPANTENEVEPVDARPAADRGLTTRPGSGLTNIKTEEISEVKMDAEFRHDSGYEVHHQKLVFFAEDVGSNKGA

BACE1 = BACE1 (Homo sapiens, UniProt P56817); assay: P5-P5′ BACE1 inhibition assay; assay type: biochemical; conditions: cell-free; read-out: BACE1 IC50 (P5-P5′ assay; BACE1-APP)
BACE1, sequence (P56817 46-501): as the sequence (P56817 46-501) above

[2] = tested on: BACE1 cleavage of rat APP; assay: Pilot PD of FAH65 vs. verubecestat in rats (CSF and medial cortex biomarkers); assay type: in vivo; conditions: oral, 30 mg/kg
BACE1 cleavage of NRG1 = target: T2, BACE1 cleavage of NRG1 (Homo sapiens, UniProt P56817); assay: SEAP-NRG assay; assay type: cell-based
T2 construct: with or without full-length wild-type BACE1; expressed in transfected cells; host or cells: HEK293
T2 sequence (P56817 46-501): as above

[3] = target: T3, human serum albumin (HSA) (Homo sapiens, UniProt P02768); assay: Human serum albumin (HSA) binding assay; assay type: in vitro ADME
T3 construct: purchased Chiral Technologies H15L-109
T3 sequence (P02768 25-609): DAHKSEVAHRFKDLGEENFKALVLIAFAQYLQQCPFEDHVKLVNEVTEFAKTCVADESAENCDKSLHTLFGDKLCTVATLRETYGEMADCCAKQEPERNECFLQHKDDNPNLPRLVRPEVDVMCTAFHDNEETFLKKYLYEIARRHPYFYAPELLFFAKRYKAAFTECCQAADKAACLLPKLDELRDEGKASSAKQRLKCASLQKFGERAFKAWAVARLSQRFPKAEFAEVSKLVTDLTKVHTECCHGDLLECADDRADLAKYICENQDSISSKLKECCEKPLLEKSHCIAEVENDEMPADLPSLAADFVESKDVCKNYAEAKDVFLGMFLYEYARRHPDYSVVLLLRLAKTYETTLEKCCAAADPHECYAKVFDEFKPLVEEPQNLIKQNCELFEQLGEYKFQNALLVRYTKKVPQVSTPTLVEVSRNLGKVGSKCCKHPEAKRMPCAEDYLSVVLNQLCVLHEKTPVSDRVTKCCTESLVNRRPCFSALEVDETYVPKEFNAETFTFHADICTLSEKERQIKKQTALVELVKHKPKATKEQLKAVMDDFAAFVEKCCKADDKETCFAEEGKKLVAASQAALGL
Experimental: Human serum albumin (HSA) binding assay
The liquid chromatography-ultraviolet/visible spectroscopy (LC-UV/Vis) assay was performed on a 1290 Infinity HPLC system (Agilent Technologies) with an HPLC column containing immobilized HSA
([…]® CAN, Chiral Technologies, Cat#H15L-109, 5 µm 50 x 4 mm). The HPLC method utilized an isocratic gradient containing 100% 6.7 mM phosphate buffer saline (pH 7.4). The retention time of the compound (tr) and injection peak were recorded.
The percent protein binding (P) was calculated using the following equations:
K’ = (tr – tm) / tm; P = 100 x [K’ / (K’ + 1)] […]
The […]
(§1) KIAM = (tr – t0) / t0; Pm = (KIAM / MW4) x 1010
(§2) Compounds with a Pm >0.85 are predicted to be BBB permeable (CNS+) at pH 7.4.
Brain Tissue Binding Assay […]
Cat#23235). Brain homogenate was diluted to 20 mg/mL in PBS (pH 7.4) and added to Slide-A-Lyzer™ MINI Dialysis Devices, 10K MWCO dialysis cups (Thermo Fisher Scientific, Cat#PI88401) in a 48-well plate containing PBS (500 µL; pH 7.4). 1 µL of 1 mM compound was added to the brain homogenate (final concentration: 2 µM compound, 0.5% DMSO) and incubated on a rocker for 4.5 hours at 37 °C. 50 µL of brain homogenate (within the dialysis cup) and PBS (within the 48-well plate) were transferred to new microcentrifuge tubes containing 200 µL of quenching reagent (100% acetonitrile) containing internal […]
standard. […]

[4] = Brain tissue binding assay; assay type: in vitro ADME, mouse; conditions: brain homogenate, 2 µM compound
Experimental: The […]
as §1, §2
Brain Tissue Binding Assay
Brain tissue was homogenized in PBS (pH 7.4) (1: 3 weight(mg)/volume(µL)) and the protein concentration determined using the Micro BCA™ Pr otein Assay Kit (Thermo Fisher Scientific, Cat#23235). Brain homogenate was diluted to 20 mg/mL in PBS (pH 7.4) and added to Slide-A-Lyzer™ MINI Dialysis Devices, 10K MWCO dialysis cups (Thermo Fisher Scientific, Cat#PI88401) in a 48-well plate containing PBS (500 µL; pH 7.4). 1 µL of 1 mM compound was added to the brain homogenate (final concentration: 2 µM compound, 0.5% DMSO) and incubated on a rocker for 4.5 hours at 37 °C. 50 µL of brain homogenate (within the dialysis cup) and PBS (within the 48-well plate) were transferred to new microcentrifuge tubes containing 200 µL of quenching reagent (100% acetonitrile) containing internal standard. Solutions were clarified by centrifugation (16,000 x g, 5 min) and the supernatants were transferred to new tubes and lyophilized. Samples were reconstituted in 100 µL of 50/50/0.1 (Water/Acetonitrile/Formic Acid) prior to analysis via LC-MS/MS.
The % of the unbound drug was calculated using the following equation: fubound = [normalized peak area in buffer side / normalized peak area in brain side] x 100

EC50 (BACE1 cleavage of PSGL1): > 10000 nM
binding to eAPP (eAPP): relative to BSA but no KD
IC50 (BACE1): 7 nM and 10 to 30 nM and 10 nM and ~10 nM
EC50 (BACE1 cleavage of NRG1; SEAP-NRG1, HEK293): > 10000 nM
IC50 (BACE1 cleavage of NRG1; Table S1): 2000 nM
substrate selectivity IC50 NRG1/IC50 APP (BACE1 cleavage of NRG1; ratio): > 200
Plasma (HSA) binding, funbound [3]: 0.44%
Brain tissue binding, funbound [4]: 3.1%
SMILES: Cc1cc(C2(c3cccc(-c4cncnc4)c3)N=C(N)N(C)C2=O)ccc1OC(F)F (centres unmarked) [FAH65]
Aβ1-42 [1]: significantly decreases
time post-delivery of lowest sAPPβ in brain (medial cortex) [2]: 6 h
time post-delivery of lowest sAPPβ in CSF ([2]; 1- and 2-h FAH65 samples not available): 3 h
Aβ1-40 in CSF compared with Veru-treated rats ([2]; in words): lower
sAPPα levels in brain medial cortex ([2]; in words): higher
sAPPβ in CSF compared with Veru ([2]; in words): lower
